Experimental data reported in patent publication US8642539B2, “Method for treating a disease characterized by reduced appetite” (Takeda Pharmaceutical Company Limited, priority 2007, dated 2014).
“Also recorded” adds a separate entry of the source.

Tests used:
wt mice = assay: Insl5 administered intraperitoneally, food intake in wt mice; assay type: in vivo; conditions: wt mice (129/SvEv), intraperitoneal, dose dependent; FIG. 9 upper panel
Procedure: (§1) To test the hypothesis that Insl5 is an orexigenic hormone directly, it was administered intraperitoneally to wt and GPR100−/− mice. […] Moreover, this effect is mediated through GPR100.

GPR100−/− mice = assay: Insl5 administered intraperitoneally, feeding behaviour in GPR100−/− mice; assay type: in vivo; conditions: intraperitoneal, FIG. 9 lower panel
Procedure: as §1

GPR100 = GPR100 (Homo sapiens, UniProt Q8TDU9); conditions: mature Insl5; cited from earlier work
Chain of GPR100 (Q8TDU9 whole entry, species assumed): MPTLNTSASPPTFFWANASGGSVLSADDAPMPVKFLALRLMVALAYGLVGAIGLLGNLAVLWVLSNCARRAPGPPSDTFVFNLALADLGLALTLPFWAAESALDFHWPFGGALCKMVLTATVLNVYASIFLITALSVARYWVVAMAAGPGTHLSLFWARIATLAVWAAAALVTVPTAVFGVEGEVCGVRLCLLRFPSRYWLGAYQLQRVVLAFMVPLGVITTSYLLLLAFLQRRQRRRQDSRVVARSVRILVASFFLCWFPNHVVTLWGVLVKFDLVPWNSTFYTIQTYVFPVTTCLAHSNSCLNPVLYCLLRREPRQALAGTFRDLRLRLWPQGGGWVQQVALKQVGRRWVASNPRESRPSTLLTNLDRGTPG

Substance: insulin-like peptide 5 [Insl5, 45 amino acid residue mature peptide comprising an A chain and a B chain connected by disulfide bonds; endogenous ligand of GPR100]
- food intake (wt mice): increase of food intake; also recorded: significant increase in food intake
- feeding behaviour (GPR100−/− mice): no effect on feeding behaviour
- affinity in displacing relaxin-3 peptide from GPR100 (GPR100): high affinity, in the nanomolar range
